In PubChem BioAssay (NCI) one finds TGI data, which are given here for 13 compounds.

Some test systems named below: SF-295 CNS; PC-3 prostate; MDA-N; HL-60(TB) leukemia; MCF7 breast; MDA-MB-231 breast; MALME-3M melanoma; NCI-H23 lung; NCI-H522 lung; SNB-19 CNS.
Common to all, as to test: inhibition of tumour cell growth, NCI panel, 48 h

SMILES strings stand for the structures.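 Five concentrations, 48 hours, 96-well plates. TGI: total growth inhibition.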 Where only a bound is given, the exact number is not on record here.

For `O=C(Nc1ccc(S(=O)(=O)/N=c2\ncccn2C(=O)C(C(F)(F)F)C(F)(F)F)cc1)C(C(F)(F)F)C(F)(F)F`, the TGI with SF-295 CNS, with PC-3 prostate, with MDA-N, with HL-60(TB) leukemia, in the assay on MCF7 breast and with MDA-MB-231 breast was > 100 µM throughout. Besides, the TGI with MALME-3M melanoma, in the assay on NCI-H23 lung, with NCI-H522 lung and in the assay on SNB-19 CNS was > 100 µM each time.

As for `C/C(=N\O)c1cccc[n+]1Cc1ccccc1`, the TGI in the assay with SF-295 CNS, with PC-3 prostate, in the assay on MDA-N, in the assay on HL-60(TB) leukemia, with MCF7 breast and with MDA-MB-231 breast was > 100 µM each time. In addition, the TGI with MALME-3M melanoma, in the assay on NCI-H23 lung, in the assay on NCI-H522 lung and in the assay on SNB-19 CNS was > 100 µM each time.

Consider `C=C1C(=O)O[C@H]2C[C@@H]1[C@@H](O)[C@H](O)[C@@H](C)CCCC(C)=CCC[C@@]2(C)O`, for which the TGI with SF-295 CNS is > 100 µM; with PC-3 prostate, 43.9 µM; with MDA-N, 54.6 µM; in the assay on HL-60(TB) leukemia, > 100 µM; with MCF7 breast, 26.5 µM; with MDA-MB-231 breast, 84.4 µM. The TGI in the assay on MALME-3M melanoma was 32.2 µM; in the assay with NCI-H23 lung, 42.7 µM; in the assay with NCI-H522 lung, 33.9 µM; in the assay on SNB-19 CNS, > 100 µM.

Regarding `COc1ccccc1C(=O)NCC1CCCN2CCCCC12` (centres undefined), the TGI with SF-295 CNS, in the assay on PC-3 prostate, with MDA-N, in the assay with HL-60(TB) leukemia, in the assay on MCF7 breast and in the assay on MDA-MB-231 breast was > 100 µM in each case. Besides, the TGI with MALME-3M melanoma, in the assay with NCI-H23 lung, with NCI-H522 lung and in the assay with SNB-19 CNS was > 100 µM each time.

Regarding `O=C(NO)NCCCl`, the TGI in the assay with SF-295 CNS, in the assay on PC-3 prostate, in the assay with MDA-N, in the assay on HL-60(TB) leukemia, with MCF7 breast and with MDA-MB-231 breast was > 100 µM each time. In addition, the TGI in the assay with MALME-3M melanoma, in the assay on NCI-H23 lung, in the assay with NCI-H522 lung and in the assay on SNB-19 CNS was > 100 µM each time.

`C(#CP(c1ccccc1)c1ccccc1)P(C#CP(c1ccccc1)c1ccccc1)c1ccccc1`: the TGI in the assay with SF-295 CNS is 97.6 µM; with PC-3 prostate, > 100 µM; in the assay on MDA-N, > 100 µM; in the assay with HL-60(TB) leukemia, > 100 µM; in the assay with MCF7 breast it was > 100 µM; with MDA-MB-231 breast, > 100 µM. For the same compound, the TGI in the assay with MALME-3M melanoma, in the assay on NCI-H522 lung and with SNB-19 CNS was > 100 µM throughout.

On to `COc1ccc(NCC(=O)Nn2c(-c3ccccc3)nc3ccccc3c2=O)cc1`, for which the TGI in the assay on SF-295 CNS is > 100 µM; with PC-3 prostate, > 100 µM; in the assay with MDA-N it was > 100 µM; in the assay with HL-60(TB) leukemia it was > 100 µM; in the assay on MCF7 breast, 41.2 µM; in the assay on MDA-MB-231 breast it was 84.4 µM. The TGI is 70.2 µM with MALME-3M melanoma, > 100 µM with NCI-H23 lung, > 10 µM in the assay on NCI-H522 lung and > 100 µM in the assay on SNB-19 CNS.

Regarding `O=C1CSC(c2ccc(Cl)cc2Cl)N1c1ccc(Oc2ccc(Cl)cc2)c(Cl)c1` (centres undefined), the TGI with SF-295 CNS is 50.9 µM; in the assay with PC-3 prostate, > 100 µM; in the assay on MDA-N, 98 µM; with HL-60(TB) leukemia it was 48.3 µM; in the assay with MCF7 breast, > 100 µM; in the assay with MDA-MB-231 breast, 45.2 µM. Besides, the TGI is 38.2 µM in the assay on MALME-3M melanoma, 69.6 µM with NCI-H23 lung, 31.5 µM with NCI-H522 lung and > 100 µM with SNB-19 CNS.

As to `CCCCCCCCCCCCCCCCNc1ccn(C2CC(O)C(COC(c3ccccc3)(c3ccccc3)c3ccc(OC)cc3)O2)c(=O)n1` (centres undefined), the TGI in the assay on SF-295 CNS, in the assay with PC-3 prostate, in the assay on MDA-N, in the assay on HL-60(TB) leukemia, in the assay with MCF7 breast and with MDA-MB-231 breast was > 100 µM throughout. Also, the TGI in the assay with MALME-3M melanoma, with NCI-H23 lung, in the assay on NCI-H522 lung and in the assay on SNB-19 CNS was > 100 µM each time.

`Cc1cc2nc3c(C#N)c4c(c(-c5ccc(Cl)cc5)n3c2cc1C)CCC4`: the TGI with SF-295 CNS was 39.8 µM; in the assay on PC-3 prostate, 97.7 µM; with MDA-N, 88 µM; in the assay with HL-60(TB) leukemia, 48.3 µM; in the assay with MCF7 breast, > 100 µM; with MDA-MB-231 breast, 49.1 µM. Moreover, the TGI in the assay with MALME-3M melanoma was 46.8 µM; with NCI-H23 lung it was 35.4 µM; in the assay on NCI-H522 lung, 35.4 µM; with SNB-19 CNS, 37.8 µM.

As for `Cc1cccc(CC(Cc2ccc(C)cc2C(=O)O)C(=O)O)c1` (centres undefined), the TGI with SF-295 CNS, in the assay with PC-3 prostate, in the assay on MDA-N, in the assay with HL-60(TB) leukemia, with MCF7 breast and with MDA-MB-231 breast was > 100 µM each time. The TGI in the assay on MALME-3M melanoma, with NCI-H23 lung, in the assay on NCI-H522 lung and with SNB-19 CNS was > 100 µM in each case.

Turning to `COc1ccccc1C1(c2c(OC)c(=O)c2=O)SCCCS1`, the TGI in the assay on SF-295 CNS, with PC-3 prostate, in the assay with MDA-N, in the assay on HL-60(TB) leukemia, with MCF7 breast and in the assay with MDA-MB-231 breast was > 100 µM each time. For the same compound, the TGI in the assay on MALME-3M melanoma, with NCI-H23 lung, in the assay on NCI-H522 lung and in the assay with SNB-19 CNS was > 100 µM in each case.

`COc1cc(OC)c2c(c1)OC(c1cccnc1)C(c1ccccc1)C2=O` (centres undefined): the TGI in the assay with SF-295 CNS, in the assay on PC-3 prostate, with MDA-N, in the assay on HL-60(TB) leukemia, with MCF7 breast and with MDA-MB-231 breast was > 100 µM each time. The TGI in the assay on MALME-3M melanoma, in the assay with NCI-H23 lung, with NCI-H522 lung and in the assay on SNB-19 CNS was > 100 µM each time.
